Patent publication US20090048304A1, “Crystal Form of Besipirdine Chlorhydrate, Process Preparation and Use Thereof” (UROGENE, priority 2006, published 2009)
Where two headings read alike, the source gives them in different places.

Tests used:
[1] = storage conditions at room temperature, use and storing conditions of the powder
[2] = for Stability of the crystal form in maturation studies (summary in words): all tested conditions: 25, 50, 80 °C, 8 or 72 hours, n-butyl-acetate; for Form(s) identified after maturation: maturation time 8 hours, 100 mg suspension in 2 ml n-butyl-acetate
Protocol: 100 mg suspensions of the different polymorphic forms, separated or in mixtures, in 2 ml of n-butyl-acetate, were left for maturation during 8 or 72 hours at different temperatures.

[3] = test system: bladder contractions induced by bladder irritation; conditions: in vivo, in rats; according to WO02/064126; cited from earlier work

CCCN(c1ccncc1)n1ccc2ccccc21.Cl [Form I, N-propyl-N-(4-pyridinyl)-1H-indol-1-amine chlorhydrate]
Change of the polymorphic form with time on storage [1]: does not evolve with time
Change of the polymorphic form with time on storage ([1]; listed as Polymorphic form I of besipirdine.HCl): thermodynamically the most stable of all characterized forms
Stability of the crystal form in maturation studies (summary in words) [2]: stable
Stability of the crystal form in maturation studies (summary in words) ([2]; listed as form I): thermodynamically the most stable of the three crystal forms

CCCN(c1ccncc1)n1ccc2ccccc21.Cl [Form II, N-propyl-N-(4-pyridinyl)-1H-indol-1-amine chlorhydrate]
Stability of the crystal form in maturation studies (summary in words) [2]: appears to be a stable form

CCCN(c1ccncc1)n1ccc2ccccc21.Cl [Form III, N-propyl-N-(4-pyridinyl)-1H-indol-1-amine chlorhydrate]
Stability of the crystal form in maturation studies (summary in words) [2]: quickly turns into form I

CCCN(c1ccncc1F)n1cc(C)c2ccccc21 [HP184, N-(3-fluoro-4-pyridinyl)-N-propyl-3-methyl-1H-indol-1-amine]
Frequency of bladder contractions induced by bladder irritation [3]: slightly decrease the frequency of bladder contractions

CCCN(c1ccncc1)n1ccc2ccccc21.Cl [I + II, N-propyl-N-(4-pyridinyl)-1H-indol-1-amine chlorhydrate]
Form(s) identified after maturation ([2]; 25 °C): I + II
Form(s) identified after maturation ([2]; 50 °C): I + II
Form(s) identified after maturation ([2]; 80 °C): I + II
Stability of the crystal form in maturation studies (summary in words) ([2]; listed as mixture of forms I and II): changes towards form I
